From patent publication US20110152332A1, “Pesticidal Heterocyclic Compounds” (Bayer CropScience AG, priority 2009, published 2011)

What was measured:
Type in all cases: in vivo
[1] = tested on: Two-spotted spider mite (Tetranychus urticae); test: Test against two-spotted spider mite (Tetranychus urticae), spray; conditions: active compound concentration 100 ppm; adult mites on kidney bean, sprayed; after 7 days
Description: (§1) Unless described otherwise, the test solutions were prepared as follows:
(§2) The active compound, 1 part by weight of the active compound was admixed with the solvent in the above described amount which contains the emulsifying agent in the above described amount. The mixture was then diluted with water to specific concentration.
(§3) In order to prepare the test solution containing the active compound, 1 part by weight of the active compound was admixed with 3 parts by weight of the solvent dimethyl formamide which contains 1 part by weight of the emulsifying agent polyoxyethylene alkylphenyl ether. This mixture is then diluted with water to the specific concentration.
(§4) Solvent: dimethyl formamide, 3 parts by weight; emulsifying agent: polyoxyethylene alkylphenyl ether, 1 part by weight
50 to 100 adult mites of Tetranychus urticae were inoculated to leaves of kidney bean at two-leaf stage planted in a pot of 6 cm in diameter. After one day, test solution at the appropriate concentration was sprayed thereon in a sufficient amount using a spray gun. After the spraying, the plant pot was placed inside a greenhouse, and after 7 days, the acaricidal activity was calculated. An acaricidal activity of 100% means that all mites were killed, whereas an acaricidal activity of 0% means that no mite was killed.

[2] = tested on: Tobacco cutworm (Spodoptera litura) larvae; test: Test against tobacco cutworm (Spodoptera litura) larvae, leaf dip; conditions: active compound concentration 100 ppm; third instar larvae on dipped sweet potato leaves; after 7 days
Description: as §1, §2, §3, §4
Leaves of sweet potato were immersed in the test solution at the appropriate concentration, and the leaves were dried in air. The leaves were then placed in a petri dish having a diameter of 9 cm, and ten Spodoptera litura at third instar larvae were released therein. The petri dishes were placed in a temperature-controlled chamber at 25° C. After 2 days and 4 days more sweet potato leaves were added. After 7 days, the number of dead larvae was counted to calculate the insecticidal activity. An insecticidal activity of 100% means that all larvae were killed, whereas an insecticidal activity of 0% means that no larva was killed. In the current test, the results of two petri dishes for each treatment were averaged.

[3] = tested on: Cucurbit leaf beetle (Aulacophora femoralis); test: Test against cucurbit leaf beetle (Aulacophora femoralis), leaf dip; conditions: active compound concentration 100 ppm; second instar larvae on dipped cucumber leaves; after 7 days
Description: as §1, §2, §3, §4
Leaves of cucumber were immersed in the test solution at the appropriate concentration, and the leaves were dried in air. The leaves were then put in a plastic cup containing sterilized black soil and five Aulacophora femoralis at second instar larvae were released in the cup. The cups were placed in a temperature-controlled chamber at 25° C. After 7 days, the number of dead larvae was counted, and thus the insecticidal activity was calculated. An insecticidal activity of 100% means that all larvae were killed, whereas an insecticidal activity of 0% means that no larva was killed.

| Structure (SMILES) | acaricidal activity [1] [%] | insecticidal activity [2] [%] | insecticidal activity [3] [%] |
| --- | --- | --- | --- |
| CCC(=O)NC(C)c1ccc(N2CC(c3cc(Cl)c(Cl)c(Cl)c3)(C(F)(F)F)OC2=O)cc1 (racemic) [Compound 1-371, N-(1-{4-[2-oxo-5-(3,4,5-trichlorophenyl)-5-(trifluoromethyl)-1,3-oxazolidin-3-yl]phenyl}ethyl)propanamide] | 100 | 100 | – |
| O=C(NCc1ccc(N2CC(c3cc(Cl)cc(Cl)c3)(C(F)(F)F)OC2=O)cc1C(F)(F)F)C1CC1 (stereo not drawn) [Compound 1-5] | – | 100 | 100 |
| CCNC(=O)NCc1ccc(N2CC(c3cc(Cl)cc(Cl)c3)(C(F)(F)F)OC2=O)cc1C(F)(F)F (stereo not drawn) [Compound 1-13] | – | 100 | – |
| CC(C)(C)OC(=O)NCc1ccc(N2CC(c3cc(Cl)cc(Cl)c3)(C(F)(F)F)OC2=O)cc1C(F)(F)F (stereo not drawn) [Compound 1-14] | – | 100 | 100 |
| NCc1ccc(N2CC(c3cc(Cl)c(Cl)c(Cl)c3)(C(F)(F)F)OC2=O)cc1C(F)(F)F (stereo not drawn) [Compound 1-15] | – | 100 | – |
| CCCC(=O)NCc1ccc(N2CC(c3cc(Cl)c(Cl)c(Cl)c3)(C(F)(F)F)OC2=O)cc1C(F)(F)F (stereo not drawn) [Compound 1-18] | – | 100 | – |
| O=C(NCc1ccc(N2CC(c3cc(Cl)c(Cl)c(Cl)c3)(C(F)(F)F)OC2=O)cc1C(F)(F)F)C1CC1 (stereo not drawn) [Compound 1-19] | – | 100 | 100 |
| O=C(CC1CC1)NCc1ccc(N2CC(c3cc(Cl)c(Cl)c(Cl)c3)(C(F)(F)F)OC2=O)cc1C(F)(F)F (stereo not drawn) [Compound 1-20] | – | 100 | – |
| O=C(CC(F)(F)F)NCc1ccc(N2CC(c3cc(Cl)c(Cl)c(Cl)c3)(C(F)(F)F)OC2=O)cc1C(F)(F)F (stereo not drawn) [Compound 1-21] | 100 | 100 | 100 |
| CSCC(=O)NCc1ccc(N2CC(c3cc(Cl)c(Cl)c(Cl)c3)(C(F)(F)F)OC2=O)cc1C(F)(F)F (stereo not drawn) [Compound 1-22] | – | 100 | 100 |
| COCCC(=O)NCc1ccc(N2CC(c3cc(Cl)c(Cl)c(Cl)c3)(C(F)(F)F)OC2=O)cc1C(F)(F)F (stereo not drawn) [Compound 1-25] | 100 | 100 | – |
| CC(C)(C)OC(=O)NCc1ccc(N2CC(c3cc(Cl)c(Cl)c(Cl)c3)(C(F)(F)F)OC2=O)cc1C(F)(F)F (stereo not drawn) [Compound 1-28] | – | 100 | 100 |
| CCC(=O)NCc1ccc(N2CC(c3cc(Cl)c(Cl)c(Cl)c3)(C(F)(F)F)OC2=O)cc1Cl (stereo not drawn) [Compound 1-31] | 100 | 100 | 100 |
| CC(=O)NCc1ccc(N2CC(c3cccc(C(F)(F)F)c3)(C(F)(F)F)OC2=O)cc1C(F)(F)F (stereo not drawn) [Compound 1-72] | – | 100 | 100 |
| CCCC(=O)NCc1ccc(N2CC(c3cccc(C(F)(F)F)c3)(C(F)(F)F)OC2=O)cc1C(F)(F)F (stereo not drawn) [Compound 1-74] | – | 100 | 100 |
| O=C(NCc1ccc(N2CC(c3cccc(C(F)(F)F)c3)(C(F)(F)F)OC2=O)cc1C(F)(F)F)C1CC1 (stereo not drawn) [Compound 1-75] | 100 | 100 | 100 |
| O=C(CC1CC1)NCc1ccc(N2CC(c3cccc(C(F)(F)F)c3)(C(F)(F)F)OC2=O)cc1C(F)(F)F (stereo not drawn) [Compound 1-76] | 100 | 100 | 100 |
| O=C(CC(F)(F)F)NCc1ccc(N2CC(c3cccc(C(F)(F)F)c3)(C(F)(F)F)OC2=O)cc1C(F)(F)F (stereo not drawn) [Compound 1-77] | – | 100 | 100 |

| Structure (SMILES) | acaricidal activity [1] [%] | insecticidal activity [2] [%] | insecticidal activity [3] [%] |
| --- | --- | --- | --- |
| CC(=O)NCc1ccc(N2CC(c3cc(C(F)(F)F)cc(C(F)(F)F)c3)(C(F)(F)F)OC2=O)cc1C(F)(F)F (stereo not drawn) [Compound 1-128] | – | 100 | 100 |
| CCC(=O)NCc1ccc(N2CC(c3cc(C(F)(F)F)cc(C(F)(F)F)c3)(C(F)(F)F)OC2=O)cc1C(F)(F)F (stereo not drawn) [Compound 1-129] | 100 | 100 | 100 |
| O=C(NCc1ccc(N2CC(c3cc(C(F)(F)F)cc(C(F)(F)F)c3)(C(F)(F)F)OC2=O)cc1C(F)(F)F)C1CC1 (stereo not drawn) [Compound 1-131] | – | 100 | 100 |
| O=C(CC(F)(F)F)NCc1ccc(N2CC(c3cc(C(F)(F)F)cc(C(F)(F)F)c3)(C(F)(F)F)OC2=O)cc1C(F)(F)F (stereo not drawn) [Compound 1-133] | 100 | 100 | 100 |
| COCCC(=O)NCc1ccc(N2CC(c3cc(C(F)(F)F)cc(C(F)(F)F)c3)(C(F)(F)F)OC2=O)cc1C(F)(F)F (stereo not drawn) [Compound 1-137] | 100 | – | 100 |
| CC(=O)NCc1ccc(N2CC(c3cc(C(F)(F)F)cc(C(F)(F)F)c3)(C(F)(F)F)OC2=O)cc1Cl (stereo not drawn) [Compound 1-142] | – | 100 | 100 |
| CCC(=O)NCc1ccc(N2CC(c3cc(C(F)(F)F)cc(C(F)(F)F)c3)(C(F)(F)F)OC2=O)cc1Cl (stereo not drawn) [Compound 1-143] | – | 100 | 100 |
| CSCC(=O)NCc1ccc(N2CC(c3cc(C(F)(F)F)cc(C(F)(F)F)c3)(C(F)(F)F)OC2=O)cc1Cl (stereo not drawn) [Compound 1-148] | – | – | 100 |
| C[S+]([O-])CC(=O)NCc1ccc(N2CC(c3cc(C(F)(F)F)cc(C(F)(F)F)c3)(C(F)(F)F)OC2=O)cc1Cl (stereo not drawn) [Compound 1-149] | – | 100 | 100 |
| COCCC(=O)NCc1ccc(N2CC(c3cc(C(F)(F)F)cc(C(F)(F)F)c3)(C(F)(F)F)OC2=O)cc1Cl (stereo not drawn) [Compound 1-151] | – | 100 | – |
| CC(=O)NCc1ccc(N2CC(c3cc(C(F)(F)F)cc(C(F)(F)F)c3)(C(F)(F)F)OC2=O)cc1C (stereo not drawn) [Compound 1-156] | – | 100 | – |
| CCC(=O)NCc1ccc(N2CC(c3cc(C(F)(F)F)cc(C(F)(F)F)c3)(C(F)(F)F)OC2=O)cc1C (stereo not drawn) [Compound 1-157] | – | 100 | 100 |
| COCCC(=O)NCc1ccc(N2CC(c3cc(C(F)(F)F)cc(C(F)(F)F)c3)(C(F)(F)F)OC2=O)cc1C (stereo not drawn) [Compound 1-165] | – | 100 | 100 |
| C[C@H](NC(=O)C1CC1)c1ccc(N2CC(c3cc(Cl)cc(Cl)c3)(C(F)(F)F)OC2=O)cc1 (stereo partly drawn) [Compound 1-345-a] | 100 | 100 | – |
| CC(=O)NC(C)c1ccc(N2CC(c3cc(Cl)c(Cl)c(Cl)c3)(C(F)(F)F)OC2=O)cc1 (stereo not drawn) [Compound 1-370] | – | 100 | 100 |
| CCC(=O)N[C@H](C)c1ccc(N2CC(c3cc(Cl)c(Cl)c(Cl)c3)(C(F)(F)F)OC2=O)cc1 (stereo partly drawn) [Compound 1-371-b] | – | 100 | – |
| CC(NC(=O)C1CC1)c1ccc(N2CC(c3cc(Cl)c(Cl)c(Cl)c3)(C(F)(F)F)OC2=O)cc1 (stereo not drawn) [Compound 1-373] | 100 | 100 | – |
| CCC(=O)NC1CCc2cc(N3CC(c4cc(Cl)cc(Cl)c4)(C(F)(F)F)OC3=O)ccc21 (stereo not drawn) [Compound 4-3] | – | 100 | – |
